Data published in patent US4055658A, “Cyanomethylphenethanolamines” (Mead Johnson & Company, priority 1976, dated 1977).
Where two headings read alike, the source gives them in different places.

Legend:
[1] = test system: guinea pig right atria; test: Effect on force and rate of spontaneously beating right atria of the guinea pig; conditions: Cavia porcellus, in vitro
Source text: (§1) Two in vitro test systems particularly useful in determining selective beta stimulant activity are: (1) effect on spontaneous tone of guinea pig tracheal chain preparations as a measure of relaxant effect on airway smooth muscle, and (2) effect on force and rate of spontaneously beating right atria of the guinea pig as a measure of beta-stimulant effect on cardiac muscle. If a beta-adrenergic agent exerts an effect on spontaneous tone of guinea pig trachea at a concentration lower than is required to affect heart force and rate, there is a positive separation ratio and the agent is considered to have bronchodilator activity with minimal cardiac stimulation. Thus, a comparison of the test agent with standard beta-stimulants such as isoproterenol or other beta-adrenergic agents can be made and relative bronchial selectivity determined.

[2] = test system: serotonin-increase pulmonary airway resistance; test: Serotonin-induced sustained bronchoconstriction in anesthetized dog; type: in vivo
Description: (§2) In the rat, transient bronchoconstriction is induced with a short-lasting intravenous (i.v.) infusion of methacholine to obtain a control value and at various times thereafter following intraduodenal (i.d.) administration of the test drug. Doses of test drug blocking methacholine induced bronchoconstriction are determined. In the dog, sustained bronchoconstriction is induced by continuous i.v. infusion of serotonin and doses of test drug necessary to reverse the bronchoconstriction are determined. In both animal models, measurements of cardiovascular effects from test drug is made simultaneously with the determination of the dose reversing bronchoconstriction. These in vivo comparisons are considered particularly significant since the bronchoconstriction induced resembles asthma and intraduodenal drug dosing of the anesthetized animal (i.e., rat) is similar to oral administration to a conscious animal. In the rat, 2-hydroxy-5-[1-hydroxy-2-[(1,1-dimethyl-2-phenylethyl)animo]ethyl]benzeneacetonitrile hydrochloride at a dose of 0.5 mg./kg. and 2.0 mg./kg. of body weight antagonizes methacholine-induced bronchoconstriction by 33.5 ± 5.2% and 72.3 ± 4.0%, respectively.

[3] = test system: heart rate; test: Cardiovascular effect (heart rate) measured simultaneously in the dog model; type: in vivo; conditions: 0.125 and 0.5 mg./kg.
Description: as §2

[4] = test system: methacholine-induced bronchoconstriction; test: Methacholine-induced bronchoconstriction in anesthetized rat; type: in vivo; conditions: intraduodenal
Description: as §2

[5] = test system: guinea pig trachea; test: Effect on spontaneous tone of guinea pig tracheal chain preparations; conditions: Cavia porcellus; in vitro, bath concentration; read-out: effective bath concentration (EC) providing a 50% decrease in the spontaneous tone of the guinea pig trachea
Source text: as §1

[6] = test system: heart rate; test: Cardiovascular effect (heart rate) measured simultaneously in the rat model; type: in vivo; conditions: 0.5 and 2.0 mg./kg.
Description: as §2

EC50 ([1]; force, read-out: EC50 increasing the force of guinea pig right atria): 0.16 ± 0.028 µg/mL
EC50 ([1]; rate, read-out: EC50 increasing the rate of guinea pig right atria): 0.33 ± 0.1 µg/mL
EC50 [5]: 0.0055 ± 0.0008 µg/mL
Structure (SMILES): CC(C)(Cc1ccccc1)NCC(O)c1ccc(O)c(CC#N)c1.Cl (stereo not drawn) [2-Hydroxy-5-[1-hydroxy-2-[(1,1-dimethyl-2-phenylethyl)amino]ethyl]benzeneacetonitrile Hydrochloride]
reduction of serotonin-increase pulmonary airway resistance ([2]; 0.125 mg./kg. body weight): 49.7 ± 13.4%
reduction of serotonin-increase pulmonary airway resistance ([2]; 0.5 mg./kg. body weight): 96.7 ± 12.3%
effect on heart rate at bronchodilating doses [3]: without appreciably affecting heart rate
antagonism of methacholine-induced bronchoconstriction ([4]; 0.5 mg./kg. of body weight): 33.5 ± 5.2%
antagonism of methacholine-induced bronchoconstriction ([4]; 2.0 mg./kg. of body weight): 72.3 ± 4.0%
effect on heart rate at bronchodilating doses [6]: without appreciably affecting heart rate
